According to paper PMC9578392, “Safety, Tolerability, and Pharmacokinetics of the Novel Antiviral Agent Ensitrelvir Fumaric Acid, a SARS-CoV-2 3CL Protease Inhibitor, in Healthy Adults” (Antimicrobial Agents and Chemotherapy, 2022):
Read-outs that look alike come from different tables or passages of the source.

What was measured:
[1] = Multiple-dose pharmacokinetics (part 2, cohorts F, G, H); assay type: in vivo, human; details: for GLS mean ratio (90% CI) of AUC0-τ (white/Japanese) / GLS mean ratio (90% CI) of Cmax (white/Japanese): 375/125 mg, cohort H vs F; for Cmax / AUC / Tmax: human, plasma, oral; for Cmax / AUC: geometric mean (%CV); for AUC: read-out: AUC0-τ; for Tmax: median (min, max)
CYP3A = test: Drug-drug interaction with midazolam (cohort G); details: ensitrelvir 750/250 mg, from increase in AUC0-inf of midazolam
[2] = 375 mg, F/375/125 mg (Japanese), Day 1, fasted
[3] = 375 mg, H/375/125 mg (white), Day 1, fasted
[4] = 750 mg, G/750/250 mg (Japanese), Day 1, fasted
[5] = F/375/125 mg (Japanese), Day 5, fasted
[6] = G/750/250 mg (Japanese), Day 5, fasted
[7] = H/375/125 mg (white), Day 5, fasted

## Cn1cnc(Cn2c(=O)[nH]/c(=N\c3cc4cn(C)nc4cc3Cl)n(Cc3cc(F)c(F)cc3F)c2=O)n1 [Ensitrelvir, ensitrelvir fumaric acid]
[1]; day 1
  GLS mean ratio (90% CI) of AUC0-τ (white/Japanese): 0.7241 (0.6517–0.8046)
  GLS mean ratio (90% CI) of Cmax (white/Japanese): 0.7699 (0.6738–0.8796)
  GLS mean ratio (90% CI) of AUC0-τ, cohort G [750/250 mg] versus F [375/125 mg]: 1.6893 (1.4492–1.9692)
  GLS mean ratio (90% CI) of Cmax, cohort G [750/250 mg] versus F [375/125 mg]: 1.5185 (1.2747–1.8089)
[1]; day 5
  GLS mean ratio (90% CI) of AUC0-τ (white/Japanese): 0.8645 (0.7740–0.9656)
  GLS mean ratio (90% CI) of Cmax (white/Japanese): 0.8651 (0.7774–0.9627)
  GLS mean ratio (90% CI) of AUC0-τ, cohort G [750/250 mg] versus F [375/125 mg]: 2.2387 (1.9942–2.5132)
  GLS mean ratio (90% CI) of Cmax, cohort G [750/250 mg] versus F [375/125 mg]: 2.1781 (1.9460–2.4379)
[1]; [2]
  Cmax: 29500 ng/mL
  AUC: 484 µg·h/mL
  Tmax: 1.5 h
[1]; [3]
  Cmax: 22700 ng/mL
  AUC: 351 µg·h/mL
  Tmax: 1.75 h
[1]; [4]
  Cmax: 44800 ng/mL
  AUC: 818 µg·h/mL
  Tmax: 3 h
[1]; [5]
  Cmax: 30400 ng/mL
  AUC: 597 µg·h/mL
  Tmax: 2 h
[1]; [6]
  Cmax: 66300 ng/mL
  AUC: 1340 µg·h/mL
  Tmax: 2.5 h
[1]; [7]
  Cmax: 26300 ng/mL
  AUC: 516 µg·h/mL
  Tmax: 1.5 h
CYP3A
  CYP3A inhibition classification: strong CYP3A inhibitor
